Laboratory results reported in PMC10137179, “Assessment of Covalently Binding Warhead Compounds in the Validation of the Cytomegalovirus Nuclear Egress Complex as an Antiviral Target” (Cells, 2023).
Where two headings read alike, the source gives them in different places.

How the values were obtained:
[1] = molecular target: T1, pUL97–cyclin H interaction (LgBiT::UL97(231–280)-Flag + SmBiT::CycH-HA) (UniProt P16788+P51946); assay: NanoBiT specificity control, pUL97–cyclin H; assay type: cell-based, HCMV; conditions: ibrutinib 3.75–30 µM
T1 construct: open reading frames coding for HCMV pUL97 (amino acids 231–280); expressed in transfected cells; host or cells: 293T
T1 sequence (P16788 231-280 limits assumed): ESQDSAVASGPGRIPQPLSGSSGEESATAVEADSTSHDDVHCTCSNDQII
T1 sequence (P51946 1-323): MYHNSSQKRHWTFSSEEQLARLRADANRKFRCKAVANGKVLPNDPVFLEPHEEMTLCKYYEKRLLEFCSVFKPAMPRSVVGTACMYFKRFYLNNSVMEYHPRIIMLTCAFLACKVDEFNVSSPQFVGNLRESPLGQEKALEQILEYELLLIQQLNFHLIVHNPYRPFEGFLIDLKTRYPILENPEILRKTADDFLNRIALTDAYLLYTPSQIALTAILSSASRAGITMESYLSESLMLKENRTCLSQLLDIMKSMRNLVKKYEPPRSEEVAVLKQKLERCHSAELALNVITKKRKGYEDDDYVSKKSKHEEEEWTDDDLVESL

[2] = molecular target: T2, HCMV pUL50-HA + pUL53-Flag (Human cytomegalovirus, UniProt P16791); assay: Confocal imaging of core NEC localization in cotransfected HeLa cells, HCMV; assay type: cell-based; conditions: 4 µM, 3 d p.t.
T2 construct: expressed in transfected cells; host or cells: HeLa
T2 sequence (P16791 whole entry): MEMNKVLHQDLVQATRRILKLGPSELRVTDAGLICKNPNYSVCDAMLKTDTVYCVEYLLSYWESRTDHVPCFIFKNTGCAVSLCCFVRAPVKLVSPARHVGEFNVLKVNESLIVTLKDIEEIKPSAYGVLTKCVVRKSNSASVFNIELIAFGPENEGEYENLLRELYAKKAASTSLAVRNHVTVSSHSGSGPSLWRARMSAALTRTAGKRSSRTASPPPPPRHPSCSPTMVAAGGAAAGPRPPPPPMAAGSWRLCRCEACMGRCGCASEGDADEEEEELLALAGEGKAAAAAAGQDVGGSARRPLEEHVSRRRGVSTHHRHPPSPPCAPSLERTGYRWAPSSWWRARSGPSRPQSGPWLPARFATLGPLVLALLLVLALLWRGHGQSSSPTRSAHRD
Protocol: (§1) HFF or HFF-UL50 cells, either Dox-induced or uninduced, were seeded in 6-well plates with a density of 2 × 10^5 cells per well, grown on coverslips and infected with HCMV AD169 or AD169 ∆UL50-ΣUL53. For infection experiments with the recombinant virus, different Shield-1 and Dox conditions were analyzed. Antivirals were added post-infection as described for the experiments. For transfection experiments, HeLa cells were seeded on coverslips in 6-well plates with a density of 3.25 × 10^5 cells per well for cotransfection with the indicated NEC expression plasmids (HSV-1 HA-UL34 + Flag-UL31, HCMV pUL50-HA + pUL53-Flag and EBV HA-BFRF1 + Flag-BFLF2). At indicated time points after virus infection, or 3 days post-transfection, cells were fixed, applied for IF staining as described previously and analyzed using a TCS SP5 confocal laser-scanning microscope with Leica LAS AF software (Leica Microsystems, Wetzlar, Germany). […] The device features a Leica photomultiplier tube (PMT) and a hybrid detector (HyD). Images were further processed using Photoshop CS5 (Adobe Inc., San José, CA, USA). […] Microscopic counting was performed for quantitation of colocalization patterns of two different proteins, as achieved by counting 50 cells per biological triplicate. […]

[3] = molecular target: T3, HSV-1 HA-UL34 + Flag-UL31 (Human herpesvirus 1, UniProt P10215+P10218); assay: Confocal imaging of core NEC localization in cotransfected HeLa cells, HSV-1; assay type: cell-based; conditions: 4 µM, 3 d p.t.
T3 construct: expressed in transfected cells; host or cells: HeLa
T3 sequence (P10215 whole entry): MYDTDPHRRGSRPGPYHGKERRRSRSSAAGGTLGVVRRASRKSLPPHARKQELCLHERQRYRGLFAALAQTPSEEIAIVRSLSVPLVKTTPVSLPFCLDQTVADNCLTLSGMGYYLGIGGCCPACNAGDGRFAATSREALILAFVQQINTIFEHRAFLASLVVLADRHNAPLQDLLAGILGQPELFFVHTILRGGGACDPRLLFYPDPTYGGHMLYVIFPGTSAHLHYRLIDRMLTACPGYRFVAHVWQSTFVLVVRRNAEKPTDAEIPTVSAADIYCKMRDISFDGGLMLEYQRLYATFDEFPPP
T3 sequence (P10218 whole entry): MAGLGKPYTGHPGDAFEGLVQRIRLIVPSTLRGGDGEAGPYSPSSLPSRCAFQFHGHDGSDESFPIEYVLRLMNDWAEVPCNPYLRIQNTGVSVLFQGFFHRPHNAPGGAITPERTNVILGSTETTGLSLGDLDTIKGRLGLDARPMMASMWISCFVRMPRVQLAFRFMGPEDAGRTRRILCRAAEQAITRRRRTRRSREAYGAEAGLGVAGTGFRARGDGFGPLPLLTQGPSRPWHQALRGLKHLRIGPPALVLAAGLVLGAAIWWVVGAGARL
Protocol: as §1

HCMV AD169 (WT) = assay: qPCR-based replication assay, parental HCMV AD169 (WT) in HFF-UL50 cells; assay type: cell-based
Protocol: The viral genome copy number in cell culture supernatants was determined by IE1-specific quantitative real-time PCR (qPCR) as described previously. […] For the qPCR reactions, aliquots of infected-cell supernatants were incubated with proteinase K (Sigma-Aldrich, St. Louis, MO, USA) at 56 °C for 1 h in order to release the viral DNA. After a denaturation step at 95 °C for 5 min, the DNA samples were optionally stored at 4 °C or directly used for qPCR, as performed in a 25 µL reaction mixture containing 5 µL of either the sample or the standard DNA solution. Additional components of the reaction mixture were 12.5 µL 2× TaqMan PCR Mastermix (Applied Biosystems, Waltham, MA, USA), 7.5 pmol of each primer (5′-[…]-3′) and 5′-[…]-3′) and 5 pmol probe directed against the HCMV MIE region exon 4 (5′-[…]-3′), which was labeled with 6-carboxyfluorescein reporter dye and 6-carboxytetramethylrhodamine quencher dye. The DNA standard for quantification was prepared by serial dilutions of an MIE-inserted plasmid. The thermal cycling conditions consisted of two initial steps of 2 min at 50 °C and 10 min at 95 °C followed by 40 amplification cycles (15 s at 95 °C, 1 min 60 °C). Reactions were performed with an ABI Prism 7700 sequence detector (Applied Biosystems, Waltham, MA, USA).
To this end, the conditional expression system of the HCMV ΔUL50-ΣUL53 recombinant was applied. […] The relative differences in viral replication efficiencies, under these four chosen conditions, were normalized by two means, namely, by using the same conditions in the DMSO control panel (±S, ±D) and by evaluating viral replication in percentage values (% DMSO).
HFF-UL50 cells were cultivated in 96-well plates and infected with (A,B) HCMV ∆UL50-ΣUL53, with (C) parental HCMV AD169 (WT), using adjusted genome copy numbers, or remained uninfected (mock). Viral input was adjusted to 1 × 10^5 copies per well. […] Dox was refreshed every second day. At 14 d p.i., supernatants were harvested, and viral genome equivalents were determined using HCMV IE1-specific qPCR. […]

C=CC(=O)N1CCC[C@@H](n2nc(-c3ccc(Oc4ccccc4)cc3)c3c(N)ncnc32)C1 [ibrutinib]
effect on pUL97–cyclin H NanoBiT interaction (in words) [1]: inactive
core NEC nuclear rim localization (in words) [2]: predominant dot-like aggregation and speckle formation
core NEC nuclear rim localization (in words) [3]: did not show any similar alteration in nuclear rim localization
EC50 (HCMV AD169 (WT); Human betaherpesvirus 5, AD169, 336 h, AD169 WT, +S+D, 14 d p.i., qPCR, read-out: EC50): 2.3 ± 1.8 µM
EC50 (HCMV AD169 (WT); Human betaherpesvirus 5, AD169, 336 h, AD169 WT, -S-D, 14 d p.i., qPCR, read-out: EC50): 2.5 ± 2.8 µM
EC50 (HCMV AD169 (WT); Human betaherpesvirus 5, AD169, parental HCMV AD169, qPCR-based assays, mean, read-out: mean EC50): 2.4 µM
